Experiments:
Assay type in all cases: biochemical
AKT1 = biological target: T1, AKT1 (Homo sapiens, UniProt P31749); assay: AKT Kinase Assay (IMAP fluorescent polarisation) vs AKT1
T1 construct: purchased SignalChem
Procedure: (§1) Testing of the compounds was performed using an AKT Kinase Assay:
(§2) Activated AKT isoforms 1, 2 and 3 were assayed utilising a 5′ FAM Crosstide (Seq. GRPRTSSFAEG-OH)(SEO ID NO: 1). The extent of kinase phosphorylation was determined by fluorescent polarisation using IMAP progressive binding reagent, which introduces binding beads which allow the reagent to specifically bind to phosphate residues via covalent co-ordination complex bonds.
(§3) iMAP binding solution stops Crosstide/kinase interaction and specifically binds phosphorylated substrates. The degree of phosphorylation is determined by fluorescent polarisation (excitation 485 nm; emission 528 nm) or the reduction in speed of rotation of the excited substrate.
(§4) The following materials were used in the assay: • a) Activated AKT isoforms (SignalChem.) dissolved in Complete Reaction buffer at a pre-determined concentration selected so that the assay was carried out in the linear range. • b) AKT substrate peptide: FAM Crosstide (R7110) Molecular Devices, diluted in complete reaction buffer. • c) iMAP Progressive Screening Express Kit (R8127) Molecular Devices • d) Complete Reaction Buffer containing 0.1% BSA, 10 mM Tris-HCl, 10 mM MgCl2, 0.05% NaN3 and 0.01% phosphate free BSA, 1 mM DTT • e) Progressive Binding Solution containing 75% Buffer A, 25% Buffer B and low volume Binding Reagent which contains the binding entity for the assay • f) ATP diluted in complete reaction buffer • g) Black polystyrene 384 well assay plates (Nunc). • h) Biotek Synergy 4 Hybrid Plate reader.
(§5) 5 μl of test compound was dissolved in DMSO (Sigma Aldrich) and serially diluted in complete reaction buffer to give a fourteen point half log dose response and plated into 384 well black plates. The compound was incubated at room temperature with activated AKT isoform ([…] ) at the pre-determined concentration, for 45 minutes.
(§6) 2.5 μl of ATP solution mixed with 2.5 μl of AKT substrate peptide (FAM Crosstide (R7110) Molecular Devices) were dispensed into each well and the plate centrifuged at 1000 rpm for 20 seconds to ensure homogenous mixing of reagents. The reaction mix was incubated in the dark for one hour at room temperature.
(§7) The kinase reaction was stopped by the addition of Progressive Binding Solution and the mixture allowed to equilibrate for one hour in the dark, at room temperature.
(§8) The fluorescent polarisation generated in each well was determined using a […] Synergy 4 Hybrid plate reader. In brief, each reaction solution was excited at 485 nm with the emission measured at 528 nm in both the parallel and perpendicular pathway.
(§9) The polarisation value generated in each well was calculated by Gen5 software (Biotek) and the % inhibition of kinase activity compared to vehicle control was calculated via GraphPad Prism. IC50 values for each compound were calculated by non-linear regression analysis using Prism software.
(§10) All plates were internally controlled by two methods. Firstly, by calculating the signal:noise ratio; based on kinase polarisation without inhibitor and polarisation generated by complete reaction buffer in the absence of activated kinase. Secondly by determining IC50 values generated by known inhibitors of the AKT isoforms.

AKT2 = biological target: T2, AKT2 (Homo sapiens, UniProt P31751); assay: AKT Kinase Assay (IMAP fluorescent polarisation) vs AKT2
T2 construct: purchased SignalChem
Procedure: as §1, §2, §3, §4, §5, §6, §7, §8, §9, §10

AKT3 = biological target: T3, AKT3 (Homo sapiens, UniProt Q9Y243); assay: AKT Kinase Assay (IMAP fluorescent polarisation) vs AKT3
T3 construct: purchased SignalChem
Procedure: as §1, §2, §3, §4, §5, §6, §7, §8, §9, §10

T1 sequence (P31749 whole entry): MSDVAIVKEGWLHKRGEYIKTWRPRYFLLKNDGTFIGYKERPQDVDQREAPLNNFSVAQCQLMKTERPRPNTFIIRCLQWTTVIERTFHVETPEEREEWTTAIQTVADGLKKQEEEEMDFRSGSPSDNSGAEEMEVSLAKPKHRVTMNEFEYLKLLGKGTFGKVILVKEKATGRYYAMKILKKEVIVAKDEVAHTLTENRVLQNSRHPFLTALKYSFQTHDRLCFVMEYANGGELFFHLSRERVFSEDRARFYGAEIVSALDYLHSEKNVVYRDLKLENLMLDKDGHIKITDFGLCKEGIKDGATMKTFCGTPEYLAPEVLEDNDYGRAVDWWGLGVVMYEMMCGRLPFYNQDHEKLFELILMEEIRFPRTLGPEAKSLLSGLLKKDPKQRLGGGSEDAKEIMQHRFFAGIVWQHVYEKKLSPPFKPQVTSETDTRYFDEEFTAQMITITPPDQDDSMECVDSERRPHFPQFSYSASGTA
T3 sequence (Q9Y243 whole entry): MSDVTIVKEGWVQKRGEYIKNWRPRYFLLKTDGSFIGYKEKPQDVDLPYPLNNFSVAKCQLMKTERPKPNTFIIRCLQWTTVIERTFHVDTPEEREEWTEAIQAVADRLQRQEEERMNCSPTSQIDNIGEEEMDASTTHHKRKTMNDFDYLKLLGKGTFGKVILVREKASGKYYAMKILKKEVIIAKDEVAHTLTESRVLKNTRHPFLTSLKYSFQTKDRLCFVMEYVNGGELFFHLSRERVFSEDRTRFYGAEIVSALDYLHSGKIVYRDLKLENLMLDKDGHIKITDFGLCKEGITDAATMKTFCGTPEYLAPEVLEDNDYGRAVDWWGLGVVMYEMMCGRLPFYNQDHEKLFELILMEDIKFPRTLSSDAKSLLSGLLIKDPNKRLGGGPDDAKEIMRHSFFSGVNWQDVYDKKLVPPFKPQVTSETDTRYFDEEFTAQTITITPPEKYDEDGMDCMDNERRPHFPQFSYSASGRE
T2 sequence (P31751 whole entry): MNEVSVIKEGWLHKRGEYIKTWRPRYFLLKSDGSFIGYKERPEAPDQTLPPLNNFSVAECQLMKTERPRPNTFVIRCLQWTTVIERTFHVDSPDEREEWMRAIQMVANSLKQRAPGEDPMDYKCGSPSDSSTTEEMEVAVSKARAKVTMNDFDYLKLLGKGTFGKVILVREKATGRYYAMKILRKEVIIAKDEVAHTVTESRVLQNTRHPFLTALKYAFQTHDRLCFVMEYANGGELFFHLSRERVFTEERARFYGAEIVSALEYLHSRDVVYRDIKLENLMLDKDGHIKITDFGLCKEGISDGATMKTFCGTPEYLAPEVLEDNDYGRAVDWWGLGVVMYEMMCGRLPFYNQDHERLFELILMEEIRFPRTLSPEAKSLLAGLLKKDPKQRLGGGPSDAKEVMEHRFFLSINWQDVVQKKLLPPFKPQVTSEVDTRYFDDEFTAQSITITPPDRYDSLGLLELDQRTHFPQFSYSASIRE

Structure (SMILES)	IC50 (AKT1) [nM]	IC50 (AKT2) [nM]	IC50 (AKT3) [nM]
CC(=O)N1CCOc2nc(-c3ccc(C4(N)CCC4)cc3)c(-c3ccccc3)cc21 [Example 41, 1-(6-(4-(1-aminocyclobutyl)phenyl)-7-phenyl-2,3-dihydro-1H-pyrido[2,3-b][1,4]oxazin-1-yl)ethanone]	1000 to 10000	100 to 1000	> 10000
NC1(c2ccc(-c3nc4c(cc3-c3ccccc3)-n3c(n[nH]c3=O)CO4)cc2)CCC1 [Example 38, 7-(4-(1-aminocyclobutyl)phenyl)-8-phenyl-2,4-dihydro-1H-pyrido[2,3-b][1,2,4]triazolo[4,3-d][1,4]oxazin-1-one]	100 to 1000	100 to 1000	1000 to 10000
CN1C(=O)C(CCO)Oc2nc(-c3ccc(C4(N)CCC4)cc3)c(-c3ccccc3)cc21 (stereo not drawn) [Example 77, 6-(4-(1-aminocyclobutyl)phenyl)-3-(2-hydroxyethyl)-1-methyl-7-phenyl-1H-pyrido[2,3-b][1,4]oxazin-2(3H)-one]	100 to 1000	1000 to 10000	> 10000
CO/N=C1\CCCc2nc(-c3ccc(C4(N)CCC4)cc3)c(-c3ccccc3)cc21 [Example 3, 2-(4-(1-aminocyclobutyl)phenyl)-3-phenyl-7,8-dihydroquinolin-5(6H)-one O-methyl oxime]	1000 to 10000	> 10000	> 10000
NC1(c2ccc(-c3nc4c(cc3-c3ccccc3)N(CCO)C(=O)CO4)cc2)CCC1 [Example 68, 6-(4-(1-aminocyclobutyl)phenyl)-1-(2-hydroxyethyl)-7-phenyl-1H-pyrido[2,3-b][1,4]oxazin-2(3H)-one]	100 to 1000	100 to 1000	> 10000
NC1(c2ccc(-c3nc4c(cc3-c3ccccc3)N(Cc3ncc[nH]3)C(=O)CO4)cc2)CCC1 [Example 42, 1-((1H-imidazol-2-yl)methyl)-6-(4-(1-aminocyclobutyl)phenyl)-7-phenyl-1H-pyrido[2,3-b][1,4]oxazin-2(3H)-one]	1000 to 10000	100 to 1000	1000 to 10000
N#CCCN1C(=O)COc2nc(-c3ccc(C4(N)CCC4)cc3)c(-c3ccccc3)cc21 [Example 62, 3-(6-(4-(1-aminocyclobutyl)phenyl)-2-oxo-7-phenyl-2,3-dihydro-1H-Pyrido[2,3-b][1,4]oxazin-1-yl)propanenitrile]	1000 to 10000	100 to 1000	1000 to 10000
C[C@]1(O)C[C@@](N)(c2ccc(-c3nc4c(cc3-c3ccccc3)N(CCF)C(=O)CO4)cc2)C1 [Example 145, 6-(4-((1r,3r)-1-amino-3-hydroxy-3-methylcyclobutyl)phenyl)-1-(2-fluoroethyl)-7-phenyl-1H-pyrido[2,3-b][1,4]oxazin-2(3H)-one]	≤ 100	≤ 100	100 to 1000
C[C@H]1Oc2nc(-c3ccc(C4(N)CCC4)cc3)c(-c3ccccc3)cc2N(C)C1=O [Example 94, (R)-6-(4-(1-aminocyclobutyl)phenyl)-1,3-dimethyl-7phenyl-1H-pyrido[2,3-b][1,4]oxazin-2(3H)-one]	100 to 1000	1000 to 10000	> 10000
CN1CCC(=O)N(C)c2cc(-c3ccccc3)c(-c3ccc(C4(N)CCC4)cc3)nc21 [Example 111, 7-(4-(1-aminocyclobutyl)phenyl)-1,5-dimethyl-8-phenyl-4,5-dihydro-1H-pyrido[2,3-b][1,4]diazepin-2(3H)-one]	1000 to 10000	1000 to 10000	> 10000
Cn1ncc2c1-c1cc(-c3ccccc3)c(-c3ccc(C4(N)CCC4)cc3)nc1CC2 [Example 6, 1-(4-(1-methyl-8-phenyl-4,5-dihydro-1H-pyrazolo[3,4-f]quinolin-7-yl)phenyl)cyclobutanamine]	100 to 1000	1000 to 10000	1000 to 10000
CN1C(=O)COc2nc(-c3ccc(C4(N)CCC4)cc3)c(-c3cccs3)cc21 [Example 126, 6-(4-(1-aminocyclobutyl)phenyl)-1-methyl-7-(thiophen-2-yl)-1H-pyrido[2,3-b][1,4]oxazin-2(3H)-one]	100 to 1000	100 to 1000	1000 to 10000
NC1(c2ccc(-c3nc4c(cc3-c3ccccc3)N(C3CCCC3)C(=O)CO4)cc2)CCC1 [Example 58, 6-(4-(1-aminocyclobutyl)phenyl)-1-cyclopentyl-7-phenyl-1H-pyrido[2,3-b][1,4]oxazin-2(3H)-one]	1000 to 10000	100 to 1000	1000 to 10000
CN(C)c1nnc2n1-c1cc(-c3ccccc3)c(-c3ccc(C4(N)CCC4)cc3)nc1OC2 [Example 116, 7-(4-(1-aminocyclobutyl)phenyl)-N,N-dimethyl-8-phenyl-4H-pyrido[2,3-b][1,2,4]triazolo[4,3-d][1,4]oxazin-1-amine]	1000 to 10000	1000 to 10000	1000 to 10000
NCc1ccc(-c2nc3c(cc2-c2ccccc2)N(CC2CC2)C(=O)CO3)cc1 [Example 153, 6-(4-(Aminomethyl)phenyl)-1-(cyclopropylmethyl)-7-phenyl-1H-pyrido[2,3-b][1,4]oxazin-2(3H)-one]	1000 to 10000	1000 to 10000	> 10000
NC1(c2ccc(-c3nc4c(cc3-c3ccccc3)N(CC(F)(F)F)C(=O)CO4)cc2)CCC1 [Example 60, 6-(4-(1-aminocyclobutyl)phenyl)-7-phenyl-1-(2,2,2-trifluoroethyl)-1H-pyrido[2,3-b][1,4]oxazin-2(3H)-one]	100 to 1000	≤ 100	1000 to 10000
NC1(c2ccc(-c3nc4c(cc3-c3ccccc3)-c3ncncc3CC4)cc2)CCC1 [Example 16, 1-(4-(9-phenyl-5,6-dihydropyrido[2,3-h]quinazolin-8-yl)phenyl)-cyclobutanamine]	≤ 100	100 to 1000	1000 to 10000
CN1CC(=O)Nc2cc(-c3ccccc3)c(-c3ccc(C4(N)CCC4)cc3)nc21 [Example 72, 6-(4-(1-aminocyclobutyl)phenyl)-4-methyl-7-phenyl-3,4-dihydropyrido[2,3-b]pyrazin-2(1H)-one]	100 to 1000	1000 to 10000	> 10000
CN1C(=O)COc2nc(-c3ccc(C4(N)CCC4)cc3)c(-c3ccsc3)cc21 [Example 125, 6-(4-(1-aminocyclobutyl)phenyl)-1-methyl-7-(thiophen-3-yl)-1H-pyrido[2,3-b][1,4]oxazin-2(3H)-one]	100 to 1000	1000 to 10000	1000 to 10000
CCN1C(=O)COc2nc(-c3ccc(C4(N)CCC4)cc3)c(-c3ccccc3)cc21 [Example 52, 6-(4-(1-aminocyclobutyl)phenyl)-1-ethyl-7-phenyl-1H-pyrido[2,3-b][1,4]oxazin-2(3H)-one]	100 to 1000	≤ 100	1000 to 10000
CN1C(=O)COc2nc(-c3ccc(C4(N)CCC4)cc3)c(-c3ccc(F)cc3)cc21 [Example 132, 6-(4-(1-aminocyclobutyl)phenyl)-7-(4-fluorophenyl)-1-methyl-1H-pyrido[2,3-b][1,4]oxazin-2(3H)-one]	100 to 1000	1000 to 10000	> 10000
CCN1C(=O)COc2nc(-c3ccc(CN)cc3)c(-c3ccccc3)cc21 [Example 151, 6-(4-(Aminomethyl)phenyl)-1-ethyl-7-phenyl-1H-pyrido[2,3-b][1,4]oxazin-2(3H)-one]	1000 to 10000	100 to 1000	> 10000

Source: patent US9221838B2, “Inhibitors of AKT activity” (ALMAC DISCOVERY LIMITED, priority 2009, dated 2015)
